Experiment [1] addresses nuclear BRD4-NUT foci in HCC2494 NUT midline carcinoma cells (Homo sapiens (Human), UniProt O60885+Q86Y26). The experiment is described as follows: Nut-foci formation assay. Conditions: 24 hours, read-out: HCS Brd4-NUT IC50. Type of experiment: cell-based. The method, boiled down: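 HCC2494 cells carrying BRD4-NUT, treated 24 h at 37 °C with 3-fold dilutions from 10 μM. Fixed and stained with anti-NUT antibody, imaged automatically to count nuclear foci per nucleus.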

Another experiment has as its system THP-1 cells. Briefly: Cell growth inhibition assay (CellTiter-Glo), THP-1. In kind it is cell-based. Conditions: Homo sapiens, read-out: THP-1 TGI. In outline:
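CellTiter-Glo ATP luminescence after compound exposure at 37° C., 5% CO2; 3-fold serial dilutions from 10 μM, 0.1% DMSO vehicle. Readings background- and day 0-corrected, vehicle = 100%, medium = −100%. IC50 and total growth inhibition (TGI) from four-parameter fits.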
A general note: Cellular ATP, detected with luciferase, serves as a proxy for viable cell number.

The IC50 is the concentration that gives 50% inhibition. Take `Cc1nn(C(=O)N(C)C)c2c1C(c1ccc(Cl)cc1)N(c1cc(C)c(=O)n(C)c1)C2=O` (stereo not drawn) [Example 142, 4-(4-chlorophenyl)-5-(1,5-dimethyl-6-oxo-1,6-dihydropyridin-3-yl)-N,N,3-trimethyl-6-oxo-5,6-dihydropyrrolo[3,4-c]pyrazole-1(4H)-carboxamide]: the IC50 in experiment [1] amounted to 149 nM. For the same compound, in the experiment on THP-1 cells, the IC (total growth inhibition) came out at 0.448 µM.

Consider `CNC(=O)n1nc(C)c2c1C(=O)N(c1cc(C)c(=O)n(C)c1)C2c1ccc(Cl)cc1` (stereo not drawn) [Example 143, 4-(4-chlorophenyl)-5-(1,5-dimethyl-6-oxo-1,6-dihydropyridin-3-yl)-N,3-dimethyl-6-oxo-5,6-dihydropyrrolo[3,4-c]pyrazole-1(4H)-carboxamide], for which, in experiment [1], the IC50 was 206 nM. Also, in the experiment with THP-1 cells, the IC (total growth inhibition) is 0.621 µM.

For `CNC(=O)n1nc(C)c2c1C(=O)N(c1cc(C)c3nnc(C)n3c1)C2c1ccc(Cl)cc1` (stereo not drawn) [Example 145, 4-(4-chlorophenyl)-5-(3,8-dimethyl-[1,2,4]triazolo[4,3-a]pyridin-6-yl)-N,3-dimethyl-6-oxo-5,6-dihydropyrrolo[3,4-c]pyrazole-1(4H)-carboxamide], in experiment [1], the IC50 amounted to 108 nM. Further, the IC (total growth inhibition) in the experiment on THP-1 cells was found to be 0.335 µM.

With `CCc1c2c(nn1C(=O)N(C)C)C(=O)N(c1cc(C)c(=O)n(C)c1)C2c1ccc(Cl)cc1` (stereo not drawn) [Example 148, 4-(4-chlorophenyl)-5-(1,5-dimethyl-6-oxo-1,6-dihydropyridin-3-yl)-3-ethyl-N,N-dimethyl-6-oxo-5,6-dihydropyrrolo[3,4-c]pyrazole-2(4H)-carboxamide], the IC50 in experiment [1] came to 118 nM. For the same compound, the IC (total growth inhibition) in the experiment on THP-1 cells was 0.372 µM.

Consider `Cc1nn(C(=O)N(C)C)c2c1[C@@H](c1ccc(Cl)cc1)N(c1cc(C)c3nnc(C)n3c1)C2=O` [Example 149, (R)-4-(4-chlorophenyl)-5-(3,8-dimethyl-[1,2,4]triazolo[4,3-a]pyridin-6-yl)-N,N,3-trimethyl-6-oxo-5,6-dihydropyrrolo[3,4-c]pyrazole-1(4H)-carboxamide], for which the IC50 in experiment [1] amounted to 35.3 nM. Also, the IC (total growth inhibition) in the experiment with THP-1 cells was 0.138 µM.

Regarding `Cc1cc(N2C(=O)c3nn(C(=O)N(C)C)c(C)c3[C@H]2c2ccc(Cl)cc2)cn2c(C)nnc12` [Example 150, (R)-4-(4-chlorophenyl)-5-(3,8-dimethyl-[1,2,4]triazolo[4,3-a]pyridin-6-yl)-N,N,3-trimethyl-6-oxo-5,6-dihydropyrrolo[3,4-c]pyrazole-2(4H)-carboxamide], the IC50 in experiment [1] was determined as 27.8 nM. The IC (total growth inhibition) in the experiment with THP-1 cells was 0.211 µM.

With `Cc1nn(C2CNC2)c2c1C(c1ccc(Cl)cc1)N(c1cc(C)c3nnc(C)n3c1)C2=O` (stereo not drawn) [Example 151, 1-(azetidin-3-yl)-4-(4-chlorophenyl)-5-(3,8-dimethyl-[1,2,4]triazolo[4,3-a]pyridin-6-yl)-3-methyl-4,5-dihydropyrrolo[3,4-c]pyrazol-6(1H)-one], the IC50 in experiment [1] amounted to 554 nM. In the experiment on THP-1 cells, the IC (total growth inhibition) stood at 1.33 µM.

In the case of `Cc1cc(N2C(=O)c3nn(C4CNC4)c(C)c3C2c2ccc(Cl)cc2)cn2c(C)nnc12` (stereo not drawn) [Example 152, 2-(azetidin-3-yl)-4-(4-chlorophenyl)-5-(3,8-dimethyl-[1,2,4]triazolo[4,3-a]pyridin-6-yl)-3-methyl-4,5-dihydropyrrolo[3,4-c]pyrazol-6(2H)-one], the IC50 in experiment [1] stood at 1350 nM. In the experiment on THP-1 cells, the IC (total growth inhibition) turned out to be 4 µM.

In the case of `CC(=O)N1CC(n2nc(C)c3c2C(=O)N(c2cc(C)c(=O)n(C)c2)C3c2ccc(Cl)cc2)C1` (stereo not drawn) [Example 153, 1-(1-acetylazetidin-3-yl)-4-(4-chlorophenyl)-5-(1,5-dimethyl-6-oxo-1,6-dihydropyridin-3-yl)-3-methyl-4,5-dihydropyrrolo[3,4-c]pyrazol-6(1H)-one], the IC50 in experiment [1] was found to be 150 nM. Also, in the experiment on THP-1 cells, the IC (total growth inhibition) was determined as 0.515 µM.

In the case of `CC(=O)N1CC(n2nc(C)c3c2C(=O)N(c2cc(C)c4nnc(C)n4c2)C3c2ccc(Cl)cc2)C1` (stereo not drawn) [Example 154, 1-(1-acetylazetidin-3-yl)-4-(4-chlorophenyl)-5-(3,8-dimethyl-[1,2,4]triazolo[4,3-a]pyridin-6-yl)-3-methyl-4,5-dihydropyrrolo[3,4-c]pyrazol-6(1H)-one], the IC50 in experiment [1] was 208 nM. Besides, the IC (total growth inhibition) in the experiment on THP-1 cells is 0.538 µM.

As to `CCOC(=O)N1CC(n2nc(C)c3c2C(=O)N(c2cc(C)c(=O)n(C)c2)C3c2ccc(Cl)cc2)C1` (stereo not drawn) [Example 155, Ethyl 3-(4-(4-chlorophenyl)-5-(1,5-dimethyl-6-oxo-1,6-dihydropyridin-3-yl)-3-methyl-6-oxo-5,6-dihydropyrrolo[3,4-c]pyrazol-1(4H)-yl)azetidine-1-carboxylate], in experiment [1], the half-maximal inhibitory concentration (IC50) turned out to be 106 nM. The IC (total growth inhibition) in the experiment with THP-1 cells amounted to 0.305 µM.

Take `CCOC(=O)N1CC(n2nc(C)c3c2C(=O)N(c2cc(C)c4nnc(C)n4c2)C3c2ccc(Cl)cc2)C1` (stereo not drawn) [Example 156, Ethyl 3-(4-(4-chlorophenyl)-5-(3,8-dimethyl-[1,2,4]triazolo[4,3-a]pyridin-6-yl)-3-methyl-6-oxo-5,6-dihydropyrrolo[3,4-c]pyrazol-1(4H)-yl)azetidine-1-carboxylate]: in experiment [1], the IC50 amounted to 43.3 nM. The IC (total growth inhibition) in the experiment on THP-1 cells is 0.143 µM.

Consider `Cc1nn(C2CN(C)C2)c2c1C(c1ccc(Cl)cc1)N(c1cc(C)c3nnc(C)n3c1)C2=O` (stereo not drawn) [Example 157, 4-(4-chlorophenyl)-5-(3,8-dimethyl-[1,2,4]triazolo[4,3-a]pyridin-6-yl)-3-methyl-1-(1-methylazetidin-3-yl)-4,5-dihydropyrrolo[3,4-c]pyrazol-6(1H)-one], for which, in experiment [1], the IC50 worked out at 99.7 nM. Besides, in the experiment with THP-1 cells, the IC (total growth inhibition) is 0.312 µM.

Take `Cc1cc(N2C(=O)c3nn(C4CN(C)C4)c(C)c3C2c2ccc(Cl)cc2)cn2c(C)nnc12` (stereo not drawn) [Example 158, 4-(4-chlorophenyl)-5-(3,8-dimethyl-[1,2,4]triazolo[4,3-a]pyridin-6-yl)-3-methyl-2-(1-methylazetidin-3-yl)-4,5-dihydropyrrolo[3,4-c]pyrazol-6(2H)-one]: the half-inhibitory concentration (IC50) in experiment [1] turned out to be 103 nM. Besides, the IC (total growth inhibition) in the experiment with THP-1 cells is 0.298 µM.

As to `Cc1nn(C[C@H](O)C(F)(F)F)c2c1[C@@H](c1ccc(Cl)cc1)N(c1cc(C)c3nnc(C)n3c1)C2=O` [Example 167, (R)-4-(4-chlorophenyl)-5-(3,8-dimethyl-[1,2,4]triazolo[4,3-a]pyridin-6-yl)-3-methyl-1-((S)-3,3,3-trifluoro-2-hydroxypropyl)-4,5-dihydropyrrolo[3,4-c]pyrazol-6(1H)-one], the IC50 in experiment [1] stood at 33.3 nM. The IC (total growth inhibition) in the experiment with THP-1 cells stood at 0.117 µM.
